Measurements published in patent US6664406B1, “Nervonic acid derivatives, their preparation and use” (Croda International PLC, priority 1999, dated 2003).
Where two headings read alike, the source gives them in different places.

Key:
[1] = rats and mice, up to 10 g/kg; reported in WO 96/34846; cited from earlier work
[2] = system: neurological EAE in the Lewis rat; conditions: for Number diseased/total: 5 days prior to inoculation and 25 days PI
Method: Male Lewis rats, weighing 230-280 g on the day of inoculation, were injected in each rear footpad with 0.1 ml of an emulsion containing equal parts of guinea pig spinal cord; phosphate buffered saline (PBS) and incomplete Freund's adjuvant supplemented with 10 mg/ml Mycobacterium tuberculosis H37Ra.
Animals were weighed daily and assessed for neurological disease from day 7 post-inoculation (PI). Rats displaying symptoms of EAE were scored as follows: 1: flaccid tail (FT), 2: hind limb hypotonia (HLH), 3: partial hind limb paralysis (PHLP), 4: complete hind limb paralysis (CHLP), 5: moribund or dead.
NA:GLA (neat oil) was orally administered 5 days prior to inoculation and continued for 25 days PI, at a dose of 750 mg/kg body weight/day and 1000 mg/kg body weight/day. NA:DHA (neat oil) was given by an identical dosing regime at a dose of 500 mg/kg body weight/day. Control-sensitised animals received PBS vehicle or were undosed. Undosed, vehicle and low dose NA:GLA treatments contained 7 animals. Four rats received high dose NA:GLA and 3 rats were dosed with NA:DHA.

[3] = Nervonic acid composition of total polar lipid from mouse brain (Example 9); assay type: in vivo; conditions: CREAE-inoculated mice
Method: (§1) Upon termination of certain biological evaluations, rat or mice brains were extracted and the fatty acid composition of total polar lipids from rat/mouse brain was determined.
(§2) Biological material was sent for analysis to Dr J. Hendersen at the University of Stirling, Institute of Aquaculture, Scotland. Analyses were carried out on two batches of experiments (detailed respectively in Example 6 and Example 7).

[4] = Nervonic acid composition of total polar lipid from rat brain (Example 9); assay type: in vivo; conditions: after Example 6 treatments; NA:GLA at both low and high doses
Method: as §1, §2

[5] = system: CREAE in the Biozzi mouse model; assay: NA:NA and NA:GLA in Miglyol 810 in CREAE (Example 8); assay type: in vivo
Method: (§3) Male Biozzi mice weighing 30-35 g were injected in each flank with 0.15 mL of an emulsion containing lyophilised mouse spinal cord, phosphate buffered saline and incomplete Freund's adjuvant supplemented with Mycobacterium butyricum and Mycobacterium tuberculosis H37Ra.
(§4) 1: Partial Flaccid Tail (PFT), 2: Complete Flaccid Tail (CFT), 3: Impaired Righting Reflex (IRR), 4: Ataxic Gait (AG), 5: Hind Limb Hypotonia (HLH), 6: Partial Hind Limb Paralysis (PHLP), 7: Complete Hind Limb Paralysis (CHLP), 8: Moribund (M), 9: Dead (D).
Therefore, Miglyol appeared well-suited for use as a vehicle in subsequent studies to determine the efficacy of compounds in CREAE. Therefore, using Miglyol 810 as the new vehicle, prophylactic effects of NA:NA and NA:GLA were re-assessed on CREAE in the Biozzi mouse model (90% dilution, 1000 mg/kg/day, up to 43 days PI).

[6] = system: chronic EAE in the Biozzi mouse model; assay: NA:NA and NA:GLA in ethyl oleate in chronic relapsing EAE (Example 7); assay type: in vivo; conditions: for AG: Percentage of mice in the group / CFT: Percentage of mice in the group / CHLP: Percentage of mice in the group / HLH: Percentage of mice in the group / PFT: Percentage of mice in the group / PHLP: Percentage of mice in the group: ethyl oleate vehicle
Method: as §3, §4

[7] = Miscibility / physical state of oral compositions in vehicle; assay type: physicochemical; conditions: room temperature (about 20° C.)
From the text: Formulations of the present invention suitable for oral administration may be in the form of discrete units such as capsules, cachets, tablets or lozenges, each containing a predetermined amount of the active ingredient; in the form of a powder or granules; in the form of a solution or a suspension in an aqueous liquid or non-aqueous liquid; or in the form of an oil-in-water emulsion or a water-in-oil emulsion. The active ingredient may also be in the form of a bolus, electuary or paste. For such formulations, a range of dilutions of the active ingredient in the vehicle is suitable, such as from 1% to 99%, preferably 5% to 50% and more preferably 10% to 25% dilution. Depending upon the level of dilution, the formulation will be either a liquid at room temperature (in the region of about 20° C.) or a low-melting solid.

[8] = acute phase, Miglyol 810 vehicle, 1000 mg/kg/day
[9] = acute phase, Miglyol 810 vehicle, n=12, NA:GLA n=11
[10] = relapse phase, Miglyol 810 vehicle, 1000 mg/kg/day
[11] = relapse phase, Miglyol 810 vehicle, NA:GLA n=9, NA:NA n=11
[12] = Biozzi mouse, 10% w/w in ethyl oleate, 1000 mg/kg body weight/day
[13] = acute phase, Biozzi mouse, 10% w/w in ethyl oleate, 1000 mg/kg body weight/day
[14] = relapse phase, Biozzi mouse, 10% w/w in ethyl oleate, 1000 mg/kg body weight/day

## CCCCC/C=C\C/C=C\C/C=C\CCCCC(=O)OCCCOC(=O)CCCC/C=C\C/C=C\C/C=C\CCCCC [GLA:GLA, 1,3-Di(z,z,z-6,9,12-Octadecatrienoyloxy)propane]
[1]
  evidence of diarrhea (absence of toxicity): without evidence of diarrhea

## CCCCC/C=C\C/C=C\C/C=C\CCCCC(=O)OCCCOC(=O)CCCCCCCCCCCCC/C=C\CCCCCCCC [NA:GLA, 1-(z-15-tetracosenoyloxy)-3-(z,z,z-6,9,12-octadecatrienoyloxy)propane]
[2]; 750 mg/kg/day
  CHLP: Number of animals showing symptoms/total: 3/7
  FT: Number of animals showing symptoms/total: 7/7
  HLH: Number of animals showing symptoms/total: 7/7
  PHLP: Number of animals showing symptoms/total: 4/7
[2]; 1000 mg/kg/day
  CHLP: Number of animals showing symptoms/total: 1/4
  FT: Number of animals showing symptoms/total: 4/4
  HLH: Number of animals showing symptoms/total: 4/4
  PHLP: Number of animals showing symptoms/total: 2/4
[2]; 750 and 1000 mg/Kg body weight/day, compared to control groups
  effect on onset, incidence and severity of disease: delayed the onset and clearly reduced the incidence and severity of disease
[2]; high dose
  animals that experienced CHLP: 25%
  animals that experienced PHLP: 50%
[2]; low and high dose (750 and 1000 mg/kg/day)
  mean cumulative clinical scores: consistently lower than control values
[2]; low dose
  animals that experienced CHLP: 43%
  animals that experienced PHLP: 57%
[2]; neat oil oral 750 mg/kg/day
  Mean day of final symptom loss (±SD): 19.0 ± 0.8 days
  Mean day of symptom onset (±SD): 11.3 ± 0.8 days
  Number of dead/total: 0/7
  Number diseased/total: 7/7
[2]; neat oil oral 1000 mg/kg/day
  Mean day of final symptom loss (±SD): 18.8 ± 1.3 days
  Mean day of symptom onset (±SD): 11.3 ± 0.5 days
  Number of dead/total: 0/4
  Number diseased/total: 4/4
[3]
  NA levels in mouse brain lipids compared to undosed and vehicle: enhancement of the NA levels in brain lipids
[4]
  NA levels in rat brain lipids compared to normal, undosed and vehicle treated animals: marked increase of NA levels
[5]; Biozzi mouse, Miglyol 810 vehicle, 1000 mg/kg/day
  effect on the neurological course of CREAE: clearly reduced the intensity of neurological deficits during both acute and relapsing phases
[5]; acute phase, Biozzi mouse, Miglyol 810 vehicle (90% dilution), 1000 mg/kg/day, up to 43 days PI
  No. of diseased mice: 10/11
[5]; [8]
  Mean day of symptom loss: 25.9 ± 2.0 days
  Mean day of symptom onset: 17.9 ± 2.6 days
  Mean duration of symptoms: 6.9 ± 3.0 days
  Number of dead mice: 1/11
[5]; [9]
  AG: Percentage of mice in the group: 73%
  CFT: Percentage of mice in the group: 82%
  CHLP: Percentage of mice in the group: 36%
  D (dead): Percentage of mice in the group: 9%
  HLH: Percentage of mice in the group: 73%
  IRR: Percentage of mice in the group: 82%
  M (moribund): Percentage of mice in the group: 0%
  PFT: Percentage of mice in the group: 91%
  PHLP: Percentage of mice in the group: 46%
[5]; mouse, in vivo
  D (dead): Percentage of mice in the group: 22%
  M (moribund): Percentage of mice in the group: 11%
[5]; [10]
  Mean day of symptom loss: 39.8 ± 5.0 days
  Mean day of symptom onset: 33.1 ± 4.9 days
  Mean duration of symptoms: 7.0 ± 4.2 days
  No. of diseased mice: 8/9
  Number of dead mice: 3/9
[5]; [11]
  AG: Percentage of mice in the group: 56%
  CFT: Percentage of mice in the group: 67%
  CHLP: Percentage of mice in the group: 44%
  HLH: Percentage of mice in the group: 56%
  IRR: Percentage of mice in the group: 67%
  PFT: Percentage of mice in the group: 89%
  PHLP: Percentage of mice in the group: 56%
[6]; [12]
  Acute and relapse symptoms (mean neurological scores): markedly reduced
  onset of relapse: delayed, but not significantly
[6]; [13]
  Mean day of symptom loss: 30.0 ± 1.4 days
  Mean day of symptom onset: 21.7 ± 4.2 days
  Mean duration of symptoms: 5.7 ± 1.5 days
  Number of dead mice: 0/10
[6]; acute phase, Biozzi mouse, […], oral 1000 mg/kg body weight/day, 5 days prior to inoculation and 43 days PI, n=10
  No. of diseased mice: 3/10
[6]; acute phase, n=10
  AG: Percentage of mice in the group: 20%
  CFT: Percentage of mice in the group: 20%
  CHLP: Percentage of mice in the group: 20%
  HLH: Percentage of mice in the group: 30%
  PFT: Percentage of mice in the group: 20%
  PHLP: Percentage of mice in the group: 20%
[6]; [14]
  Mean day of symptom onset: 42.0 ± 1.0 days
  No. of diseased mice: 3/10
  Number of dead mice: 0/10
[6]; relapse phase, n=10
  AG: Percentage of mice in the group: 10%
  CFT: Percentage of mice in the group: 10%
  CHLP: Percentage of mice in the group: 0%
  HLH: Percentage of mice in the group: 30%
  PFT: Percentage of mice in the group: 10%
  PHLP: Percentage of mice in the group: 0%
[7]
  miscibility of compositions with vehicle: miscible in all proportions at room temperature
